Test results as given in patent publication US9586973B2, “HDAC6 inhibitors and uses thereof” (Universiteit Gent, priority 2013, dated 2017).
Where two headings read alike, the source gives them in different places.

Legend:
[1] = MTT assay, inhibition of cell proliferation; settings: tested at 0.01, 0.1, 1 and 10 μg/ml; FIG. 3
HDAC1 = HDAC1 (Homo sapiens, UniProt Q13547); experiment: HDAC1 inhibitory activity (in vitro pharmacology); format: biochemical; settings: for inhibition at 10 µM: read-out: % inhibition HDAC1
HDAC1, sequence (Q13547 whole entry, species assumed): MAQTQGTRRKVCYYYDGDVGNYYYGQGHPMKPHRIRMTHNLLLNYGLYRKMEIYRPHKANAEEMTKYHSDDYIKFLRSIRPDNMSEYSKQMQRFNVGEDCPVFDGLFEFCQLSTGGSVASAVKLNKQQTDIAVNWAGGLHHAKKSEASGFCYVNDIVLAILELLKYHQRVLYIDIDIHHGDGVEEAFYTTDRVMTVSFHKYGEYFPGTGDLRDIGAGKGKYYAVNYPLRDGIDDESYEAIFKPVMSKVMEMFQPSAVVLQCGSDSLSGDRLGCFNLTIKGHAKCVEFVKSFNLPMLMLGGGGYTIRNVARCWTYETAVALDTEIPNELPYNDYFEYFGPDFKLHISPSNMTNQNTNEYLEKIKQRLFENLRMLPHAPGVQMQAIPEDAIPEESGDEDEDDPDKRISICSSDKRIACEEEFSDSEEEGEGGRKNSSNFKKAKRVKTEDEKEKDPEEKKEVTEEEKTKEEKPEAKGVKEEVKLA

HDAC6 = molecular target: T1, HDAC6 (Homo sapiens, UniProt Q9UBN7); experiment: biochemical; settings: for inhibition at 10 µM: read-out: % inhibition HDAC6
T1 sequence (Q9UBN7 1-1215): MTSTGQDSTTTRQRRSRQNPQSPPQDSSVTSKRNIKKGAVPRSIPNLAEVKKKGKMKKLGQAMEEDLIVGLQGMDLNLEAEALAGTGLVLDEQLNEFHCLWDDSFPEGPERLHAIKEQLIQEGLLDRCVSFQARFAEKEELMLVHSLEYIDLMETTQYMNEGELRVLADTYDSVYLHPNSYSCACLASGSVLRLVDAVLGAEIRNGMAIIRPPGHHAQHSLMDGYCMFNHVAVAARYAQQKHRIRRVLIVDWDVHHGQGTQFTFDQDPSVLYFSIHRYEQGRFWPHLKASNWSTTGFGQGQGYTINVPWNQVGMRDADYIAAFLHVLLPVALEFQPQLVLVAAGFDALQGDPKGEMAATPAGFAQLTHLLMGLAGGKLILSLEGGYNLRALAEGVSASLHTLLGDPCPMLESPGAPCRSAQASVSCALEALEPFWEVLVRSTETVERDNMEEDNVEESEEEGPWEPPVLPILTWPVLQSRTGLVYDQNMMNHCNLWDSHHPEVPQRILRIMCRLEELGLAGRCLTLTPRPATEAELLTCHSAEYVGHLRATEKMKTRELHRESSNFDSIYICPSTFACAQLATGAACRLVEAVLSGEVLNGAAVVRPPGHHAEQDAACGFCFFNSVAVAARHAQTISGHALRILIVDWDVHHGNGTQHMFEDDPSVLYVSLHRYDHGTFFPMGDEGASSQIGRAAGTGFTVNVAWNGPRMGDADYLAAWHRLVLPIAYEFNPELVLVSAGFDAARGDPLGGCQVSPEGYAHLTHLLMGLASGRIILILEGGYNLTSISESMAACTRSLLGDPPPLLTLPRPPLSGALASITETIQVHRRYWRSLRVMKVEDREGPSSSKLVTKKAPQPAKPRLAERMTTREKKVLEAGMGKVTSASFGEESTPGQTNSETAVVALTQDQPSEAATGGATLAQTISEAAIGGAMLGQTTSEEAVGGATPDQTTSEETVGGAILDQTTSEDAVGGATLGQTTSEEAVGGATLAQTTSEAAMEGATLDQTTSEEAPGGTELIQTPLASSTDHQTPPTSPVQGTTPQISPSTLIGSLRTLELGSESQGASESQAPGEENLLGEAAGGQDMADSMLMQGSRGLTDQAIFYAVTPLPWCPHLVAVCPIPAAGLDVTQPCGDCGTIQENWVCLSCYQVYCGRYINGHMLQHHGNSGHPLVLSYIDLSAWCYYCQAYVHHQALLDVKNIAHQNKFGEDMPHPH

[2] = tested on: MO4 mouse fibrosarcoma cells; experiment: SRB assay, inhibition of cell proliferation; format: cell-based; settings: tested at 0.01, 0.1, 1 and 10 μg/ml, FIG. 2
Method: The sulforhodamine B (SRB) assay is used for cell density determination, and is based on the measurement of cellular protein content (“biomass”)^12,13. The method has been optimized for the screening of compounds for growth effects on adherent cells in a 96-well format. After an incubation period with the compound of the invention, cell monolayers (MO4 mouse fibrosarcoma cells) are fixed with 50% (wt/vol) trichloroacetic acid for 1 hour and stained with SRB for 30 min, after which the excess dye is removed by washing repeatedly with 1% (vol/vol) […]. The protein-bound dye is dissolved in 10 mM Tris base solution for OD determination at 570 nm using a microplate reader. […] The method allows to test a large number of samples within a few days, and is a quantitative assay for growth inhibition by microtubule inhibitors.

HDAC8 = molecular target: T2, HDAC8 (Homo sapiens, UniProt Q9BY41); experiment: HDAC8 inhibition (selectivity); format: biochemical
T2 sequence (Q9BY41 1-377): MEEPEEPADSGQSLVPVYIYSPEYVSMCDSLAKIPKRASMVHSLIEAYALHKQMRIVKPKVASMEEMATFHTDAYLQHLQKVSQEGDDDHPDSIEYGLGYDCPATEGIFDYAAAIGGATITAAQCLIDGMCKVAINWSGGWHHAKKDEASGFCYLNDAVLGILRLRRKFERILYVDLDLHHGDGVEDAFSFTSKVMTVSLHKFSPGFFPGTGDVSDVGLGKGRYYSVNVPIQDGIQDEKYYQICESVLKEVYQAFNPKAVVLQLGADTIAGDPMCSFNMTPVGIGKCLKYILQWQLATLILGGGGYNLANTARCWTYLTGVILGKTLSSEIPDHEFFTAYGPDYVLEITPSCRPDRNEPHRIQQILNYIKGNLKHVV

[3] = tested on: MDA MB 231 human mammary adenocarcinoma cells; experiment: Collagen invasion assay; format: cell-based; settings: for inhibition of invasion of cells into collagen type I gel: 24 hours, FIG. 4
Description: Tissue invasion requires infiltration into an extracellular matrix (ECM) dominated by networks of collagen type I. The invasion model consists of native, acid-extracted rat tail collagen type I containing nonhelical telopeptides situated at the N- and C-terminal ends. These telopeptides play an important role in intermolecular covalent cross-links necessary for a gel architecture presenting itself as a structural barrier to cancer cell traffic. […] The collagen type I solution was gently poured into the wells of a 6-well plate. The experimental set-up was placed at 37° C. in a humidified atmosphere with 10% CO2 in air for at least 1 h. […] Invasion is calculated as the percentage of invading cells per high powered field and is expressed as the mean and standard deviation.
Compound 7c (10 μg/ml) and paclitaxel (1 μg/ml) were tested in the assay. As a control, cells in medium without additional compounds was used. The effect of the solvent of compound 7c (1% DMSO) was measured as well.

HDAC4 = HDAC4 (Homo sapiens, UniProt P56524); experiment: HDAC4 inhibition (selectivity); format: biochemical
HDAC4, sequence (P56524 whole entry, species assumed): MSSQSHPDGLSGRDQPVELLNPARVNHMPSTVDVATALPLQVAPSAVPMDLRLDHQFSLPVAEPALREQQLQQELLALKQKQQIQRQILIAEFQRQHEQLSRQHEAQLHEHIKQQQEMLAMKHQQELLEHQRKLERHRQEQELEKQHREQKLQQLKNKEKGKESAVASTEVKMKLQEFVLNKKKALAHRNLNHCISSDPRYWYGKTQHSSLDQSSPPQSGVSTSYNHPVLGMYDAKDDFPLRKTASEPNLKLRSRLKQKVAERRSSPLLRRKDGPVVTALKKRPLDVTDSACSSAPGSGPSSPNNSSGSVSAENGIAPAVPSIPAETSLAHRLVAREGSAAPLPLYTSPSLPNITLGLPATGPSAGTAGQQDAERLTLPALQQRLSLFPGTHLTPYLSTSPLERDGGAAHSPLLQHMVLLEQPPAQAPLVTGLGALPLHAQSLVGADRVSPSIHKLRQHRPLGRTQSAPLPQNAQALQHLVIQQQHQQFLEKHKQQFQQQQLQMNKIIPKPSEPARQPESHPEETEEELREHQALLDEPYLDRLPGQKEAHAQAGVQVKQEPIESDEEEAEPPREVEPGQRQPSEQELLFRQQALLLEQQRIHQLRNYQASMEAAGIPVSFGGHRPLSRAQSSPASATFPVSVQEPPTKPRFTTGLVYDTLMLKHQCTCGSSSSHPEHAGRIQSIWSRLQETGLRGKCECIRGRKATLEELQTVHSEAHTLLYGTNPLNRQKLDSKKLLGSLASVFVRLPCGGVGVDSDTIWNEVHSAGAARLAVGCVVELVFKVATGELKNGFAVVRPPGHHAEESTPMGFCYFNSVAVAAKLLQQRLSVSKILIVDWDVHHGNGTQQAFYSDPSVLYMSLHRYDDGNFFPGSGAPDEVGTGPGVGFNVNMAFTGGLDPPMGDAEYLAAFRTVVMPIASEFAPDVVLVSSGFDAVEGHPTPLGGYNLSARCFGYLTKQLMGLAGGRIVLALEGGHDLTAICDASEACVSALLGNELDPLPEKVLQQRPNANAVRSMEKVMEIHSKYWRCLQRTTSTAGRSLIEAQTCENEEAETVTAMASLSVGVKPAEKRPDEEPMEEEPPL

HDAC11 = molecular target: T3, HDAC11 (Homo sapiens, UniProt Q96DB2); experiment: HDAC11 inhibition (selectivity); format: biochemical; settings: for HDAC 11 inhibitory effect: no IC50 values could be obtained
T3 sequence (Q96DB2 1-347): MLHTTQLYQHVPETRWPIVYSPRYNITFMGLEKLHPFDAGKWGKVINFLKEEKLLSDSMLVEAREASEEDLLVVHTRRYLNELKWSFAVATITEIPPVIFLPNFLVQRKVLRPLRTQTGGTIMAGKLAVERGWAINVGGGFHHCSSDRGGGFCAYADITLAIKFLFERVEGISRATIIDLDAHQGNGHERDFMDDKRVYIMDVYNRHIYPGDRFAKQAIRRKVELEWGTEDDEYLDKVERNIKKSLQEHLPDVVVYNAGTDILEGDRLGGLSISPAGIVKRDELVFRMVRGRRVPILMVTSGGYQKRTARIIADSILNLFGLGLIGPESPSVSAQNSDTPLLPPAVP

[4] = read-out: IC50 values for HDAC6 inhibition, Table 3 and text

| Structure (SMILES) | inhibition of cell proliferation, MTT assay [1] | inhibition at 10 µM (HDAC1) [%] | IC50 (HDAC6) [nM] | inhibition at 10 µM (HDAC6) [%] | inhibition of cell proliferation, SRB assay [2] | IC50 (HDAC8) [nM] | IC50 (HDAC4) [nM] | IC50 (HDAC1) [nM] | HDAC6 versus HDAC8 selectivity (HDAC6) [fold] | IC50 (HDAC6; read-out: HDAC6 IC50, Table 4) [nM] | IC50 (HDAC6; [4]) [nM] | other results |
| --- | --- | --- | --- | --- | --- | --- | --- | --- | --- | --- | --- | --- |
| O=C(NO)c1ccc(Cn2c3c(c4ccccc42)CSCC3)cc1 [Compound 7a, N-(4-Hydroxycarbamoylbenzyl)-1,2,4,9-tetrahydro-3-thia-9-azafluorene] | inhibition of cell proliferation | 26 | 15 | 99 | inhibit cell proliferation | – | – | – | – | – | – | inhibition of cell proliferation, SRB assay ([2]; listed as 7A): inhibition of cell proliferation |
| O=C(NO)c1ccc(Cn2c3c(c4cc(F)ccc42)CSCC3)cc1 [Compound 7c, N-(4-Hydroxycarbamoylbenzyl)-6-fluoro-1,2,4,9-tetrahydro-3-thia-9-azafluorene] | inhibition of cell proliferation | 17 | 22 | 99 | inhibit cell proliferation | 2800 | 1500 | 21000 | 127 | 22 | 22 | inhibition of invasion of cells into collagen type I gel ([3]; 10 μg/ml, compared to solvent control (1% DMSO)): inhibits invasion; inhibition of invasion of cells into collagen type I gel ([3]; 10 μg/ml, compared to solvent control (1% DMSO), listed as 7C): inhibition of invasion; histology of invasion ([3]; after 14 days): confirmed inhibition of invasion; inhibition of cell proliferation, SRB assay ([2]; listed as 7C): inhibition of cell proliferation; IC50 (HDAC11): 9700 nM |
| O=C(NO)c1ccc(Cn2c3c(c4ccccc42)CS(=O)(=O)CC3)cc1 [Compound 10a, N-(4-Hydroxycarbamoylbenzyl)-1,2,4,9-tetrahydro-3-thia-9-azafluorene-3,3-dioxide] | – | 51 | 1.9 | 99 | – | 1700 | 1600 | 11000 | 895 | 1.9 | 1.9 | IC50 (HDAC1; read-out: HDAC1 IC50, Table 5): 11000 nM; HDAC6 versus HDAC4 selectivity (HDAC6): 842 fold; selectivity against HDAC1 (HDAC6 vs HDAC1) (HDAC6): 5789 fold; Selectivity = IC50 (HDAC1)/IC50 (HDAC6) (HDAC6; Table 5): 5789; IC50 (HDAC6; read-out: HDAC6 IC50, Table 5): 1.9 nM; HDAC 11 inhibitory effect (HDAC11): very low |
| COc1cc(C(=O)NO)ccc1Cn1c2c(c3ccccc31)CS(=O)(=O)CC2 [Compound 10b] | – | 2 | 2000 | 73 | – | – | – | – | – | – | – | – |
| O=C(NO)c1ccc(Cn2c3c(c4cc(F)ccc42)CS(=O)(=O)CC3)cc1 [Compound 10c, N-(4-Hydroxycarbamoylbenzyl)-6-fluoro-1,2,4,9-tetrahydro-3-thia-9-azafluorene-3,3-dioxide] | – | 53 | 3.7 | 99 | – | 930 | 1900 | 12000 | 251 | 3.7 | 3.7 | IC50 (HDAC1; read-out: HDAC1 IC50, Table 5): 12000 nM; HDAC6 versus HDAC4 selectivity (HDAC6): 513 fold; selectivity against HDAC1 (HDAC6 vs HDAC1) (HDAC6): 3243 fold; Selectivity = IC50 (HDAC1)/IC50 (HDAC6) (HDAC6; Table 5): 3243; IC50 (HDAC6; read-out: HDAC6 IC50, Table 5): 3.7 nM; HDAC 11 inhibitory effect (HDAC11): very low |
| COc1cc(C(=O)NO)ccc1Cn1c2c(c3cc(F)ccc31)CS(=O)(=O)CC2 [Compound 10d] | – | 8 | 1300 | 75 | – | – | – | – | – | – | – | – |
| CC(=O)O[C@H]1C(=O)[C@@]2(C)[C@H]([C@H](OC(=O)c3ccccc3)[C@]3(O)C[C@H](OC(=O)[C@H](O)[C@@H](NC(=O)c4ccccc4)c4ccccc4)C(C)=C1C3(C)C)[C@]1(OC(C)=O)CO[C@@H]1C[C@@H]2O [Paclitaxel, reference compound] | inhibition of cell proliferation | – | – | – | inhibition of cell proliferation | – | – | – | – | – | – | inhibition of invasion of cells into collagen type I gel ([3]; 1 μg/ml): inhibition of invasion |
